Experimental data: US20260241012A1, “1,8-NAPHTHYRIDIN-2-ONE HETEROBIFUNCTIONAL BCL6 DEGRADERS” (Treeline Biosciences, Inc., priority 2022, published 2026)

Target: T1, N-terminal HiBiT tagged BCL6 (Homo sapiens, UniProt P41182)
T1 construct: expressed in transfected cells; host or cells: HT1080 (ATCC CCL-121), stably transduced with lentivirus pLV-UBC-N-HiBiT-BCL6-PGK-puro
Assay: HiBiT based degradation assay
Format: cell-based
Settings: HT1080 cells expressing N-terminal HiBiT tagged BCL6, 5 hours of incubation; for Ymin (5 hr): BCL6 degradation normalized with DMSO control; for DC50: four-parameter logistic model, read-out: EC50 (5 hr)
Description: Human BCL6 protein coding open reading frame fused with N-terminal HiBiT coding sequence was synthesized from Integrated DNA Technologies (IDT). Next, the N-HiBiT-BCL6 sequence was cloned into pLV-UBC-PGK-Puro, a lentivirus plasmid purchased from Vectorbuilder, to generate pLV-UBC-N-HiBiT-BCL6-PGK-puro. Lentiviral particles were generated from Lenti-X™ 293T cells (Clontech) by co-transfection of pLV-UBC-N-HiBiT-BCL6-PGK-puro plasmids and lentiviral packaging plasmid mix (Cellecta). HT1080 [HT1080] (ATCC CCL-121) cells were infected with the lentivirus, and HT1080 cells stably integrated with the lentiviral vectors were established by incubation with 1 μg/mL puromycin (Thermofisher).
HT1080 cells expressing N-terminal HiBiT tagged BCL6 were dispensed into a 384-well plate pre-spotted with compounds at varying concentrations. Five thousand cells were seeded into each well in 40 μL of RPMI 1640 media plus 10% Fetal Bovine Serum (10082-147, Thermofisher). After 5 hours of incubation at 37° C. with 5% CO2, 30 μL of the NANO-GLOR HiBiT Lytic Detection System working solution (Promega) was added to each well and incubated at room temperature for 15 min. After incubation, luminescence was read on a PHERAstar FSX Plate Reader (BMG). BCL6 degradation at each indicated concentration was normalized with DMSO control. The BCL6 degradation curves were plotted using a four-parameter logistic model.

SMILES: CNC(=O)COc1cc2cc(Nc3nc(N4CC[C@H](CN5CCN(c6ccc7c(C8CCC(=O)NC8=O)nn(C)c7c6)CC5)[C@@H](C)C4)ncc3Cl)cnc2n(C(C)C)c1=O (stereo partly drawn) [Compound 176b, 2-((6-((5-chloro-2-((3R,4S)-4-((4-(3-(2,6-dioxopiperidin-3-yl)-1-methyl-1H-indazol-6-yl)piperazin-1-yl)methyl)-3-methylpiperidin-1-yl)pyrimidin-4-yl)amino)-1-isopropyl-2-oxo-1,2-dihydro-1,8-naphthyridin-3-yl)oxy)-N-methylacetamide]
- Ymin (5 hr): +++ (30% ≤ Ymin < 50%)
- DC50: < 10 nM

SMILES: CNC(=O)COc1cc2cc(Nc3nc(N4CCN(c5ccc6c(C7CCC(=O)NC7=O)nn(C)c6c5)CC4)ncc3Cl)cnc2n(C(C)C)c1=O (centres unmarked) [Compound 165, 2-[[6-[[5-chloro-2-[4-[3-(2,6-dioxo-3-piperidyl)-1-methyl-indazol-6-yl]piperazin-1-yl]pyrimidin-4-yl]amino]-1-isopropyl-2-oxo-1,8-naphthyridin-3-yl]oxy]-N-methyl-acetamide]
- Ymin (5 hr): ++ (50% ≤ Ymin < 70%)
- DC50: < 10 nM

SMILES: CNC(=O)COc1cc2cc(Nc3nc(N4CC5(CN(CC6CCN(c7cccc8c(C9CCC(=O)NC9=O)nn(C)c78)CC6)C5)C4)ncc3Cl)cnc2n(C)c1=O (centres unmarked) [Compound 119, 2-((6-((5-chloro-2-(6-((1-(3-(2,6-dioxopiperidin-3-yl)-1-methyl-1H-indazol-7-yl)piperidin-4-yl)methyl)-2,6-diazaspiro[3.3]heptan-2-yl)pyrimidin-4-yl)amino)-1-methyl-2-oxo-1,2-dihydro-1,8-naphthyridin-3-yl)oxy)-N-methylacetamide]
- Ymin (5 hr): +++ (30% ≤ Ymin < 50%)
- DC50: < 10 nM

SMILES: CNC(=O)COc1cc2cc(Nc3cc(N4CCN(CC5CCN(c6cccc7c(C8CCC(=O)NC8=O)nn(C)c67)CC5)[C@H](CO)C4)ncc3Cl)cnc2n(C(C)C)c1=O (stereo partly drawn) [Compound 233a, 2-[[6-[[5-chloro-2-[(3S)-4-[[1-[3-(2,6-dioxo-3-piperidyl)-1-methyl-indazol-7-yl]-4-piperidyl]methyl]-3-(hydroxymethyl)piperazin-1-yl]-4-pyridyl]amino]-1-isopropyl-2-oxo-1,8-naphthyridin-3-yl]oxy]-N-methyl-acetamide]
- Ymin (5 hr): ++++ (Ymin < 30%)
- DC50: 10 to 100 nM

SMILES: CNC(=O)COc1cc2cc(Nc3nc(N4CCN(C(=O)N5CCC(c6cccc7c(C8CCC(=O)NC8=O)nn(C)c67)CC5)CC4)ncc3Cl)cnc2n(C(C)C)c1=O (centres unmarked) [Compound 224, 2-[[6-[[5-chloro-2-[4-[4-[3-(2,6-dioxo-3-piperidyl)-1-methyl-indazol-7-yl]piperidine-1-carbonyl]piperazin-1-yl]pyrimidin-4-yl]amino]-1-isopropyl-2-oxo-1,8-naphthyridin-3-yl]oxy]-N-methyl-acetamide]
- Ymin (5 hr): +++ (30% ≤ Ymin < 50%)
- DC50: < 10 nM

SMILES: CNC(=O)COc1cc2cc(Nc3nc(N4CC[C@@H](CN5CCN(c6ccc7c(C8CCC(=O)NC8=O)nn(C)c7c6)CC5)[C@@H](C)C4)ncc3Cl)cnc2n(C(C)C)c1=O (stereo partly drawn) [Compound 176c, 2-((6-((5-chloro-2-((3R,4R)-4-((4-(3-(2,6-dioxopiperidin-3-yl)-1-methyl-1H-indazol-6-yl)piperazin-1-yl)methyl)-3-methylpiperidin-1-yl)pyrimidin-4-yl)amino)-1-isopropyl-2-oxo-1,2-dihydro-1,8-naphthyridin-3-yl)oxy)-N-methylacetamide]
- Ymin (5 hr): +++ (30% ≤ Ymin < 50%)
- DC50: 10 to 100 nM

SMILES: CNC(=O)COc1cc2cc(Nc3nc(N4CCC(O)(CN5CCN(c6cccc7c(C8CCC(=O)NC8=O)nn(C)c67)CC5)CC4)ncc3Cl)cnc2n(C(C)C)c1=O (centres unmarked) [Compound 178, 2-[[6-[[5-chloro-2-[4-[[4-[3-(2,6-dioxo-3-piperidyl)-1-methyl-indazol-7-yl]piperazin-1-yl]methyl]-4-hydroxy-1-piperidyl]pyrimidin-4-yl]amino]-1-isopropyl-2-oxo-1,8-naphthyridin-3-yl]oxy]-N-methyl-acetamide]
- Ymin (5 hr): +++ (30% ≤ Ymin < 50%)
- DC50: < 10 nM

SMILES: CNC(=O)COc1cc2cc(Nc3nc(N4CCN(CC5CCN(c6cccc7c(C8CCC(=O)NC8=O)nn(C)c67)CC5)CC4)ncc3Cl)cnc2n(CC(F)(F)F)c1=O (centres unmarked) [Compound 170, 2-[[6-[[5-chloro-2-[4-[[1-[3-(2,6-dioxo-3-piperidyl)-1-methyl-indazol-7-yl]-4-piperidyl]methyl]piperazin-1-yl]pyrimidin-4-yl]amino]-2-oxo-1-(2,2,2-trifluoroethyl)-1,8-naphthyridin-3-yl]oxy]-N-methyl-acetamide]
- Ymin (5 hr): ++++ (Ymin < 30%)
- DC50: 10 to 100 nM

SMILES: CNC(=O)COc1cc2cc(Nc3nc(N4CCN(C[C@@H]5CCN(c6ccc7c(C8CCC(=O)NC8=O)nn(C)c7c6)C5)[C@@H](C)C4)ncc3Cl)cnc2n(C(C)C)c1=O (stereo partly drawn) [Compound 216b, 2-((6-((5-Chloro-2-((3S)-4-(((3S)-1-(3-(2,6-dioxopiperidin-3-yl)-1-methyl-1H-indazol-6-yl)pyrrolidin-3-yl)methyl)-3-methylpiperazin-1-yl)pyrimidin-4-yl)amino)-1-isopropyl-2-oxo-1,2-dihydro-1,8-naphthyridin-3-yl)oxy)-N-methylacetamide]
- Ymin (5 hr): +++ (30% ≤ Ymin < 50%)
- DC50: 10 to 100 nM

SMILES: CNC(=O)COc1cc2cc(Nc3nc(N4CCC(Oc5cccc6c(C7CCC(=O)NC7=O)nn(C)c56)CC4)ncc3Cl)cnc2n(C)c1=O (centres unmarked) [Compound 148, 2-((6-((5-chloro-2-(4-((3-(2,6-dioxopiperidin-3-yl)-1-methyl-1H-indazol-7-yl)oxy)piperidin-1-yl)pyrimidin-4-yl)amino)-1-methyl-2-oxo-1,2-dihydro-1,8-naphthyridin-3-yl)oxy)-N-methylacetamide]
- Ymin (5 hr): +++ (30% ≤ Ymin < 50%)
- DC50: < 10 nM

SMILES: CNC(=O)COc1cc2cc(Nc3nc(N4CC[C@@H](CN5CCN(c6ccc7c(C8CCC(=O)NC8=O)nn(C)c7c6)CC5)[C@H](C)C4)ncc3Cl)cnc2n(C(C)C)c1=O (stereo partly drawn) [Compound 176d, 2-[[6-[[5-chloro-2-[(3S,4R)-4-[[4-[3-(2,6-dioxo-3-piperidyl)-1-methyl-indazol-6-yl]piperazin-1-yl]methyl]-3-methyl-1-piperidyl]pyrimidin-4-yl]amino]-1-isopropyl-2-oxo-1,8-naphthyridin-3-yl]oxy]-N-methyl-acetamide]
- Ymin (5 hr): +++ (30% ≤ Ymin < 50%)
- DC50: < 10 nM

SMILES: CNC(=O)COc1cc2cc(Nc3nc(N4CC5(CC[C@@H](Nc6cccc7c(C8CCC(=O)NC8=O)nn(C)c67)[C@@H](C)C5)C4)ncc3Cl)cnc2n(C)c1=O (relative stereo) [Compound 159b, 2-((6-((5-chloro-2-((6S,7R)-7-((3-(2,6-dioxopiperidin-3-yl)-1-methyl-1H-indazol-7-yl)amino)-6-methyl-2-azaspiro[3.5]nonan-2-yl)pyrimidin-4-yl)amino)-1-methyl-2-oxo-1,2-dihydro-1,8-naphthyridin-3-yl)oxy)-N-methylacetamide]
- Ymin (5 hr): +++ (30% ≤ Ymin < 50%)
- DC50: < 10 nM

SMILES: CNC(=O)COc1cc2cc(Nc3nc(N4CCN(CC5CCN(c6cccc7c(C8CCC(=O)NC8=O)nn(C)c67)CC5)C[C@H]4CO)ncc3Cl)cnc2n(C(C)C)c1=O (stereo partly drawn) [Compound 155a, 2-((6-((5-chloro-2-((2S)-4-((1-(3-(2,6-dioxopiperidin-3-yl)-1-methyl-1H-indazol-7-yl)piperidin-4-yl)methyl)-2-(hydroxymethyl)piperazin-1-yl)pyrimidin-4-yl)amino)-1-isopropyl-2-oxo-1,2-dihydro-1,8-naphthyridin-3-yl)oxy)-N-methylacetamide]
- Ymin (5 hr): +++ (30% ≤ Ymin < 50%)
- DC50: 10 to 100 nM

SMILES: CNC(=O)COc1cc2cc(Nc3nc(N4CCC(CN5CCN(c6cccc7c(C8CCC(=O)NC8=O)nn(C)c67)[C@H](C)C5)CC4)ncc3Cl)cnc2n(C(C)C)c1=O (stereo partly drawn) [Compound 169b, 2-((6-((5-chloro-2-(4-(((3R)-4-(3-(2,6-dioxopiperidin-3-yl)-1-methyl-1H-indazol-7-yl)-3-methylpiperazin-1-yl)methyl)piperidin-1-yl)pyrimidin-4-yl)amino)-1-isopropyl-2-oxo-1,2-dihydro-1,8-naphthyridin-3-yl)oxy)-N-methylacetamide]
- Ymin (5 hr): ++++ (Ymin < 30%)
- DC50: < 10 nM

SMILES: CNC(=O)COc1cc2cc(Nc3nc(N4CCN(CC5CCN(c6ccc7c(C8CCC(=O)NC8=O)nn(C)c7c6)CC5)C[C@@H]4CO)ncc3Cl)cnc2n(C(C)C)c1=O (stereo partly drawn) [Compound 151a, 2-((6-((5-chloro-2-((2R)-4-((1-(3-(2,6-dioxopiperidin-3-yl)-1-methyl-1H-indazol-6-yl)piperidin-4-yl)methyl)-2-(hydroxymethyl)piperazin-1-yl)pyrimidin-4-yl)amino)-1-isopropyl-2-oxo-1,2-dihydro-1,8-naphthyridin-3-yl)oxy)-N-methylacetamide]
- Ymin (5 hr): +++ (30% ≤ Ymin < 50%)
- DC50: < 10 nM

SMILES: CNC(=O)COc1cc2cc(Nc3nc(N4CCC([C@@H](C)N5CCN(c6cccc7c(C8CCC(=O)NC8=O)nn(C)c67)CC5)CC4)ncc3Cl)cnc2n(C(C)C)c1=O (single isomer, unassigned) [Compound 193a]
- Ymin (5 hr): +++ (30% ≤ Ymin < 50%)
- DC50: 10 to 100 nM
